Assay results: patent US5210193A, “Piperazine derivatives” (American Cyanamid Company, priority 1990, dated 1993)
≈ marks a conversion by molar mass, not a printed value.

Assays:
[1] = test system: Pseudomonas aeruginosa VGH 84-4; test: in vitro antibacterial MIC, agar plate dilution; assay type: cell-based; details: Pseudomonas aeruginosa, VGH844, 18 h, 35° C., read-out: MIC
Description: (§1) The in vitro antimicrobial spectrum of the compounds of ths invention were determined by the agar plate dilution method with Mueller-Hinton agar and an inoculum of each test organism of approximately 10^4 colony forming units delivered by the Steers replicating device. The minimal inhibitory concentration (MIC) in mcg/ml is defined as the lowest concentration of test compound that inhibited visible growth after 18 hours incubation at 35° C. Results are given in Table I, with the test compounds identified by the number of their hereinafter described examples.

[2] = test system: Staphylococcus aureus ATCC 25913; test: in vitro antibacterial MIC, agar plate dilution; assay type: cell-based; details: ATCC25913, 18 hours, 35° C.
Description: as §1

[3] = test system: Enterobacter aerogenes VGH 84-36; test: in vitro antibacterial MIC, agar plate dilution; assay type: cell-based; details: Klebsiella aerogenes, VGH8436, 18 hours, 35° C., read-out: MIC
Description: as §1

Klebsiella pneumoniae AD [4] = test: in vitro antibacterial MIC, agar plate dilution; assay type: cell-based; details: Klebsiella pneumoniae, 18 h, 35° C., read-out: MIC
Description: as §1

[5] = test system: Staphylococcus aureus Smith; test: in vitro antibacterial MIC, agar plate dilution; assay type: cell-based; details: Staphylococcus aureus, 18 h, 35° C., read-out: MIC
Description: as §1

[6] = test system: Proteus rettgeri CMC 84-41; test: in vitro antibacterial MIC, agar plate dilution; assay type: cell-based; details: Providencia rettgeri, CMC8441, 18 h, 35° C., read-out: MIC
Description: as §1

[7] = test system: Escherichia coli ATCC 25922; test: in vitro antibacterial MIC, agar plate dilution; assay type: cell-based; details: Escherichia coli, ATCC25922, 18 h, 35° C., read-out: MIC
Description: as §1

[8] = test system: Escherichia coli CMC 84-11; test: in vitro antibacterial MIC, agar plate dilution; assay type: cell-based; details: Escherichia coli, CMC8411, 18 h, 35° C., read-out: MIC
Description: as §1

[9] = test system: Morganella morganii VGH 84-11; test: in vitro antibacterial MIC, agar plate dilution; assay type: cell-based; details: VGH8411, 18 hours, 35° C., read-out: MIC
Description: as §1

[10] = test system: Klebsiella pneumoniae MOR 84-4; test: in vitro antibacterial MIC, agar plate dilution; assay type: cell-based; details: Klebsiella pneumoniae, MOR844, 18 h, 35° C., read-out: MIC
Description: as §1

[11] = test system: Enterobacter cloacae VGH 84-37; test: in vitro antibacterial MIC, agar plate dilution; assay type: cell-based; details: Enterobacter cloacae, VGH8437, 18 h, 35° C., read-out: MIC
Description: as §1

Klebsiella pneumoniae AD [12] = test: in vivo antibacterial activity, survival of infected mice (Table II); set-up: species or system Charles River CD-1 mice; details: subcutaneous
Description: Charles River CD-1 mice were infected with either Klebsiella pneumoniae AD or Staphylococcus aureus Smith. A single subcutaneous dose of the test compound was administered 1/2 hour after infection. […] The results appear in Tables II and III, wherein the representative test compounds are identified by the number of their hereinafter described examples.

[13] = test system: Streptococcus faecalis ATTC 29212; test: in vitro antibacterial MIC, agar plate dilution; assay type: cell-based; details: Enterococcus faecalis, ATTC29212, 18 hours, 35° C., read-out: MIC
Description: as §1

Row | Compound | MIC [1] | MIC [2] | MIC [3] | MIC (Klebsiella pneumoniae AD [4]) | MIC [5] | MIC [6] | MIC [7] | MIC [8] | MIC [9] | MIC [10] | MIC [11] | Survival Ratio 7 Days After Infection (Klebsiella pneumoniae AD [12]; 0.25 mg/kg single dose) | Survival Ratio 7 Days After Infection (Klebsiella pneumoniae AD [12]; 1 mg/kg single dose) | Survival Ratio 7 Days After Infection (Klebsiella pneumoniae AD [12]; 4 mg/kg single dose) | Survival Ratio 7 Days After Infection (Klebsiella pneumoniae AD [12]; 16 mg/kg single dose) | Survival Ratio 7 Days After Infection (Klebsiella pneumoniae AD [12]; 64 mg/kg single dose) | MIC [13]
1 | CCn1cc(C(=O)O)c(=O)c2cc(F)c(N3CCNC(CO)C3)cc21.Cl (stereo not shown) [Example 5, 1-Ethyl-6-fluoro-1,4-dihydro-7[3-(hydroxymethyl)-1-piperazinyl]-4-oxo-3-quinolinecarboxylic acid, hydrochloride] | 8 µg/mL | 32 µg/mL | 16 µg/mL | 0.5 µg/mL | 8 µg/mL | 1 µg/mL | 2 µg/mL | 1 µg/mL | 0.5 µg/mL | 2 µg/mL | 1 µg/mL | 0/5 | 0/5 | 0/5 | 0/5 | 5/5 | –
2 | CCn1cc(C(=O)O)c(=O)c2cc(F)c(N3CCN(C)C(CF)C3)cc21 (stereo not shown) [Example 25, 1-Ethyl-6-fluoro-7-[3-(fluoromethyl)-4-methyl-1-piperazinyl]-1,4-dihydro-4-oxo-3-quinolinecarboxylic acid] | 2 µg/mL (≈ 5.47 µM) | 0.5 µg/mL (≈ 1.37 µM) | 2 µg/mL (≈ 5.47 µM) | 0.5 µg/mL (≈ 1.37 µM) | 0.5 µg/mL (≈ 1.37 µM) | 1 µg/mL (≈ 2.74 µM) | 0.25 µg/mL (≈ 0.684 µM) | 0.5 µg/mL (≈ 1.37 µM) | 1 µg/mL (≈ 2.74 µM) | 1 µg/mL (≈ 2.74 µM) | 1 µg/mL (≈ 2.74 µM) | – | – | – | – | – | 8 µg/mL (≈ 21.9 µM)
3 | CCn1cc(C(=O)O)c(=O)c2cc(F)c(N3CCNC(c4sc5ccc(Cl)cc5c4C)C3)cc21 (stereo not shown) [Example 20, 7-[3-(5-Chloro-3-methylbenzo[b]thien-2-yl)-1-piperazinyl]-1-ethyl-6-fluoro-1,4-dihydro-4-oxo-3-quinolinecarboxylic acid] | > 256 µg/mL | > 256 µg/mL | > 256 µg/mL | > 256 µg/mL | > 256 µg/mL | > 256 µg/mL | > 256 µg/mL | > 256 µg/mL | > 256 µg/mL | > 256 µg/mL | > 256 µg/mL | – | – | – | – | – | > 256 µg/mL
4 | CCn1cc(C(=O)O)c(=O)c2cc(F)c(N3CCN(C)C(c4ccn(S(=O)(=O)c5ccccc5)c4)C3)cc21 (stereo not shown) [Example 49] | > 256 µg/mL | 1 µg/mL (≈ 1.86 µM) | 256 µg/mL (≈ 475 µM) | 64 µg/mL (≈ 119 µM) | 0.5 µg/mL (≈ 0.928 µM) | 256 µg/mL (≈ 475 µM) | 32 µg/mL (≈ 59.4 µM) | 64 µg/mL (≈ 119 µM) | 256 µg/mL (≈ 475 µM) | 256 µg/mL (≈ 475 µM) | 256 µg/mL (≈ 475 µM) | – | – | – | – | – | 64 µg/mL (≈ 119 µM)
5 | CCn1cc(C(=O)O)c(=O)c2cc(F)c(N3CCNC(c4sccc4C)C3)cc21 (stereo not shown) [Example 16, 1-Ethyl-6-fluoro-1,4-dihydro-7-[3-(3-methyl-2-thienyl)-1-piperazinyl]-4-oxo-3-quinolinecarboxylic acid] | > 256 µg/mL | 1 µg/mL (≈ 2.41 µM) | 8 µg/mL (≈ 19.3 µM) | 4 µg/mL (≈ 9.63 µM) | 0.5 µg/mL (≈ 1.2 µM) | 8 µg/mL (≈ 19.3 µM) | 8 µg/mL (≈ 19.3 µM) | 4 µg/mL (≈ 9.63 µM) | 4 µg/mL (≈ 9.63 µM) | 8 µg/mL (≈ 19.3 µM) | 8 µg/mL (≈ 19.3 µM) | 0/5 | 0/5 | 1/5 | 1/5 | – | –
6 | CCn1cc(C(=O)O)c(=O)c2cc(F)c(N3CCNC(c4ccn(S(=O)(=O)c5ccccc5)c4)C3)cc21 (stereo not shown) [Example 44, 1-Ethyl-6-fluoro-1,4-dihydro-4-oxo-7-[3-[1-(phenylsulfonyl)-1H-pyrrol-3-yl]-1-piperazinyl]-3-quinolinecarboxylic acid] | > 256 µg/mL | 0.5 µg/mL (≈ 0.953 µM) | 16 µg/mL (≈ 30.5 µM) | 4 µg/mL (≈ 7.63 µM) | 0.25 µg/mL (≈ 0.477 µM) | 4 µg/mL (≈ 7.63 µM) | 2 µg/mL (≈ 3.81 µM) | 4 µg/mL (≈ 7.63 µM) | 4 µg/mL (≈ 7.63 µM) | 8 µg/mL (≈ 15.3 µM) | 4 µg/mL (≈ 7.63 µM) | – | – | – | – | – | 4 µg/mL (≈ 7.63 µM)
